Data on 14 compounds can be found in US20220402862A1 (Intellia Therapeutics, Inc., priority 2019, published 2022).

The term pKa denotes the pH at which an ionisable group is half protonated.

Data set [1] in a line: RNA encapsulation efficiency of LNPs (Ribogreen fluorescence assay). The note with it: LNP, sg:mRNA 1:1, N/P about 6, amine lipid/DSPC/cholesterol/PEG-2k-DMG 50/9/38/3; Table 2, Experiments 2-20. Format: physicochemical. The procedure, abridged:
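LNPs were diluted in 1× TE with 0.2% Triton X-100 (total RNA) or without it (free RNA), stained with RiboGreen for ~10 min at room temperature in the dark, and read at Ex 488/Em 525 nm against standard curves of the starting RNA. Encapsulation efficiency = (Total − Free)/Total.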

The nature of data set [2]: pKa measurement of unformulated amine lipid (fluorescence, method of Jayaraman et al.). Format: physicochemical. The conditions noted are these: 100 μM in 0.1 M phosphate buffer, pH 2.0-12.0. Here is the method:
The pKa of each amine lipid was determined according to the method in Jayaraman, et al. (Angewandte Chemie, 2012) with the following adaptations. […] Lipid was diluted to 100 μM in 0.1 M phosphate buffer (Boston Bioproducts) where the pH ranged from 2.0-12.0. Fluorescence intensity was measured using excitation and emission wavelengths of 321 nm and 448 nm.

The test system of a further data set is Transthyretin (TTR). As to the kind of experiment: Serum TTR ELISA in mice after LNP dosing. Format: in vivo, CD-1 female mice. The note with it: guide G282 experiments; for Serum TTR % TSS: mouse serum TTR relative to TSS control; for Serum TTR: mouse serum, ELISA. Here is the method:
CD-1 female mice ranging from 6-10 weeks of age were used in each study. Animals were weighed and grouped according to body weight for preparing dosing solutions based on group average weight. LNPs were dosed via the lateral tail vein in a volume of 0.2 mL per animal (approximately 10 mL per kilogram body weight). The animals were periodically observed for adverse effects for at least 24 hours post dose. For studies measuring in vivo editing in liver, CD-1 female mice were dosed at 0.1 mg/kg unless otherwise noted. Animals were euthanized at 6 or 7 days by ex sanguination via cardiac puncture under isoflurane anesthesia. Liver tissue was collected from each animal for DNA extraction and analysis. Blood was collected into serum separator tubes or into tubes containing buffered sodium citrate for plasma as described herein. Cohorts of mice were measured for editing by Next-Generation Sequencing (NGS).
Blood was collected and the serum was isolated as indicated. The total mouse TTR serum levels were determined using a Mouse Prealbumin (Transthyretin) ELISA Kit (Aviva Systems Biology, Cat. OKIA00111). Briefly, sera were serial diluted with kit sample diluent to a final dilution of 10,000-fold for 0.1 mg/kg dose and final dilutions of 10,000-fold and of 2,500-fold for 0.3 mg/kg. This diluted sample was then added to the ELISA plates and the assay was carried out according to the manufacturer's directions.
(In general: In an ELISA, binding on a coated surface is turned into a signal by an enzyme label.)

Data set [3] is described as follows: Dynamic light scattering of LNPs: Z-average diameter, number average diameter, PDI. Format: physicochemical. The conditions noted are these: LNP, sg:mRNA 1:1, N/P about 6, 50/9/38/3; Table 2, Experiments 2-20. The procedure, abridged: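 LNP samples were diluted in PBS and measured by DLS to give intensity-based Z-average diameter, number average diameter and polydispersity index. PDI describes size spread around the mean, with zero meaning a uniform population.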

Take `CCCCC/C=C\C/C=C\CCCCCCCC(=O)OCC(COC(=O)CCCCN(C)C)COC(=O)CCC(OCCCCCCCC)OCCCCCCCC` (stereo not shown) [Compound 25]: the “Encapsulation (%)” value in data set [1] stood at 99%. Moreover, in data set [2], the pKa was 7.65. In the data set on Transthyretin (TTR), the “Serum TTR % TSS” value is given as 112% and the “Serum TTR” value came to 1013 µg/mL. Also, in data set [3], the “Number mean (nm)” value is reported as 61 nm, the PDI was found to be 0.080 and the “Z-avg (nm)” value is recorded as 87 nm.

As for `CCCCC/C=C\C/C=C\CCCCCCCC(=O)OCC(COC(=O)CCCN(C)C)COC(=O)CCC(OCCCCCCCC)OCCCCCCCC` (stereo not shown) [Compound 26, 3-((4,4-bis(octyloxy)butanoyl)oxy)-2-(((4-(dimethylamino)butanoyl)oxy)methyl)propyl (9Z,12Z)-octadeca-9,12-dienoate], the “Encapsulation (%)” value in data set [1] came out at 98%. This compound had a pKa in data set [2] of 7.39. Further, in the data set with Transthyretin (TTR), the “Serum TTR % TSS” value came out at 112% and the “Serum TTR” value came out at 1008 µg/mL. In data set [3], the “Number mean (nm)” value is recorded as 73 nm, the PDI is reported as 0.000 and the “Z-avg (nm)” value came to 88 nm.

For `CCCCC/C=C\C/C=C\CCCCCCCC(=O)OCC(COC(=O)CCC(OCCCCCCCC)OCCCCCCCC)COC(=O)CCN(CC)CC` (stereo not shown) [Compound 27, 3-((4,4-bis(octyloxy)butanoyl)oxy)-2-(((3-(diethylamino)propanoyl)oxy)methyl)propyl (9Z,12Z)-octadeca-9,12-dienoate], in data set [1], the “Encapsulation (%)” value came out at 97%. Moreover, the pKa in data set [2] came out at 5.35. Also, in the data set on Transthyretin (TTR), the “Serum TTR % TSS” value was determined as 93% and the “Serum TTR” value turned out to be 841 µg/mL. In data set [3], the “Number mean (nm)” value was 45 nm, the PDI turned out to be 0.100 and the “Z-avg (nm)” value was 66 nm.

In the case of `CCCCC/C=C\C/C=C\CCCCCCCC(=O)OCC(COC(=O)CCCCN(CC)CC)COC(=O)CCC(OCCCCCCCC)OCCCCCCCC` (stereo not shown) [Compound 28, 3-((4,4-bis(octyloxy)butanoyl)oxy)-2-(((5-(diethylamino)pentanoyl)oxy)methyl)propyl (9Z,12Z)-octadeca-9,12-dienoate], the “Encapsulation (%)” value in data set [1] is on record as 98%. In data set [2], the pKa is 7.3. In the data set on Transthyretin (TTR), the “Serum TTR % TSS” value is 73% and the “Serum TTR” value was 661 µg/mL. Besides, in data set [3], the “Number mean (nm)” value came out at 68 nm, the PDI was 0.010 and the “Z-avg (nm)” value was 83 nm.

As to `CCCCC/C=C\C/C=C\CCCCCCCC(=O)OCC(COC(=O)CCC(OCCCCCCCC)OCCCCCCCC)COC(=O)C1(C)CCN(C)CC1` (stereo not shown) [Compound 32, 3-((4,4-bis(octyloxy)butanoyl)oxy)-2-((((9Z,12Z)-octadeca-9,12-dienoyl)oxy)methyl)propyl 1,4-dimethylpiperidine-4-carboxylate], the “Encapsulation (%)” value in data set [1] is 99%. The compound further yielded a pKa in data set [2] of 7.32. For the same compound, in the data set on Transthyretin (TTR), the “Serum TTR % TSS” value came out at 43% and the “Serum TTR” value turned out to be 388 µg/mL. Further, in data set [3], the “Number mean (nm)” value is recorded as 61 nm, the PDI is listed as 0.040 and the “Z-avg (nm)” value amounted to 77 nm.

Turning to `CCCCC/C=C\C/C=C\CCCCCCCC(=O)OCC(COC(=O)CCC(OCCCCCCCC)OCCCCCCCC)COC(=O)NC1CCCN(CC)C1` (stereo not shown) [Compound 36, 3-((4,4-bis(octyloxy)butanoyl)oxy)-2-((((1-ethylpiperidin-3-yl)carbamoyl)oxy)methyl)propyl (9Z,12Z)-octadeca-9,12-dienoate], the “Encapsulation (%)” value in data set [1] came to 98%. In data set [2], this compound returned a pKa of 6.58. In addition, in the data set on Transthyretin (TTR), the “Serum TTR % TSS” value amounted to 99% and the “Serum TTR” value was 795 µg/mL. Besides, in data set [3], the “Number mean (nm)” value is reported as 59.48 nm, the PDI is recorded as 0.024 and the “Z-avg (nm)” value came out at 73.71 nm.

In the case of `CCCCC/C=C\C/C=C\CCCCCCCC(=O)OCC(COC(=O)CCC(OCCCCCCCC)OCCCCCCCC)COC(=O)NC1CCN(CC)CC1` (stereo not shown) [Compound 37, 3-((4,4-bis(octyloxy)butanoyl)oxy)-2-((((1-ethylpiperidin-4-yl)carbamoyl)oxy)methyl)propyl (9Z,12Z)-octadeca-9,12-dienoate], the “Encapsulation (%)” value in data set [1] is listed as 100%. The same compound gave a pKa in data set [2] of 7.84. Further, in the data set with Transthyretin (TTR), the “Serum TTR % TSS” value came to 77% and the “Serum TTR” value turned out to be 617 µg/mL. Moreover, in data set [3], the “Number mean (nm)” value worked out at 44.73 nm, the PDI is 0.091 and the “Z-avg (nm)” value amounted to 65.01 nm.

Turning to `CCCCC/C=C\C/C=C\CCCCCCCC(=O)OCC(COC(=O)CCC(OCCCCCCCC)OCCCCCCCC)COC(=O)NCC1CCCCN1CC` (stereo not shown) [Compound 38, 3-((4,4-bis(octyloxy)butanoyl)oxy)-2-(((((1-ethylpiperidin-2-yl)methyl)carbamoyl)oxy)methyl)propyl (9Z,12Z)-octadeca-9,12-dienoate], in data set [1], the “Encapsulation (%)” value is 96%. Also, the pKa in data set [2] came to 7.17. In the data set on Transthyretin (TTR), the “Serum TTR % TSS” value was found to be 60% and the “Serum TTR” value is 481 µg/mL. In data set [3], the “Number mean (nm)” value amounted to 74.58 nm, the PDI stood at 0.019 and the “Z-avg (nm)” value is 91.5 nm.

As to `CCCCC/C=C\C/C=C\CCCCCCCC(=O)OCC(COC(=O)CCC(OCCCCCCCC)OCCCCCCCC)COC(=O)NCC1CCCN1C` (stereo not shown) [Compound 39, 3-((4,4-bis(octyloxy)butanoyl)oxy)-2-(((((1-methylpyrrolidin-2-yl)methyl)carbamoyl)oxy)methyl)propyl (9Z,12Z)-octadeca-9,12-dienoate], the “Encapsulation (%)” value in data set [1] is 97%. In data set [2], this compound displayed a pKa of 7.34. In the data set with Transthyretin (TTR), the “Serum TTR % TSS” value is 82% and the “Serum TTR” value was determined as 656 µg/mL. Moreover, in data set [3], the “Number mean (nm)” value came out at 64.79 nm, the PDI is reported as 0.024 and the “Z-avg (nm)” value was 79.81 nm.

In the case of `CCCCCC/C=C\COC(=O)CCCCCCCCCC(=O)OCC(COC(=O)CCC(OCCCCCCCC)OCCCCCCCC)COC(=O)OCCCN(CC)CC` (stereo not shown) [Compound 69, (Z)-1-(3-((4,4-bis(octyloxy)butanoyl)oxy)-2-((((3-(diethylamino)propoxy)carbonyl)oxy)methyl)propyl) 11-(non-2-en-1-yl) undecanedioate], the “Encapsulation (%)” value in data set [1] is given as 98%. Also, in data set [2], the pKa came to 6.18. For the same compound, in data set [3], the “Number mean (nm)” value amounted to 68.12 nm, the PDI is 0.026 and the “Z-avg (nm)” value is 85.11 nm.

Regarding `CCCCCC/C=C\COC(=O)CCCCCCCCCCCC(=O)OCC(COC(=O)CCC(OCCCCCCCC)OCCCCCCCC)COC(=O)OCCCN(CC)CC` (stereo not shown) [Compound 70, (Z)-1-(3-((4,4-bis(octyloxy)butanoyl)oxy)-2-((((3-(diethylamino)propoxy)carbonyl)oxy)methyl)propyl) 13-(non-2-en-1-yl) tridecanedioate], the “Encapsulation (%)” value in data set [1] worked out at 98%. This compound came in with a pKa in data set [2] of 6.02. In data set [3], the “Number mean (nm)” value was determined as 66.78 nm, the PDI came out at 0.017 and the “Z-avg (nm)” value came to 83.47 nm.

As for `CCCCC/C=C\C/C=C\CCCCCCCC(=O)OCC(COC(=O)CCC(OCCCCCCCC)OCCCCCCCC)OC(=O)OCCCN(CC)CC` (stereo not shown) [Compound 97, 3-((4,4-bis(octyloxy)butanoyl)oxy)-2-(((3-(diethylamino)propoxy)carbonyl)oxy)propyl (9Z,12Z)-octadeca-9,12-dienoate], in data set [1], the “Encapsulation (%)” value is 98%. Further, the pKa in data set [2] was 6.09. For the same compound, in data set [3], the “Number mean (nm)” value came out at 55.14 nm, the PDI was found to be 0.037 and the “Z-avg (nm)” value was found to be 68.66 nm.

With `CCCCC/C=C\C/C=C\CCCCCCCC(=O)OCC(COCCN(CC)CC)COC(=O)CCC(OCCCCCCCC)OCCCCCCCC` (stereo not shown) [Compound 98, 3-((4,4-bis(octyloxy)butanoyl)oxy)-2-((2-(diethylamino)ethoxy)methyl)propyl (9Z,12Z)-octadeca-9,12-dienoate], in data set [1], the “Encapsulation (%)” value amounted to 99%. Besides, the pKa in data set [2] came to 6.4. In data set [3], the “Number mean (nm)” value is listed as 57 nm, the PDI was 0.02 and the “Z-avg (nm)” value is recorded as 70 nm.

Regarding `CCCCC/C=C\C/C=C\CCCCCCCC(=O)OCC(COCCCN(CC)CC)COC(=O)CCC(OCCCCCCCC)OCCCCCCCC` (stereo not shown) [Compound 99, 3-((4,4-bis(octyloxy)butanoyl)oxy)-2-((3-(diethylamino)propoxy)methyl)propyl (9Z,12Z)-octadeca-9,12-dienoate], the “Encapsulation (%)” value in data set [1] was found to be 99%. The pKa in data set [2] came out at 7.1. Besides, in data set [3], the “Number mean (nm)” value stood at 74 nm, the PDI is reported as 0.003 and the “Z-avg (nm)” value stood at 89 nm.
